Some test systems named below: OVCAR-3 ovarian; HCT-116 colon; BT-549 breast; TK-10 renal; HT29 colon; HCC-2998 colon; LOX IMVI melanoma; RXF 393 renal; NCI-H460 lung; SF-268 CNS.
Holding throughout (assay): NCI tumour cell line growth inhibition, 48 h

Values joined by “and” are separate entries in the source; they are usually repeats but may differ in a detail not shown here. Equal values may be shown once.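 Where inhibition never reached the appropriate level, the endpoint shown equals the highest concentration tested. Otherwise, values were interpolated linearly from a five-concentration, 48-hour dose response in 96-well plates. GI50 marks 50% less growth. TGI denotes the concentration required for complete inhibition of growth.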

For `COC(=O)CCCNC(=O)C(=O)c1c(O)c(O)c(C(C)C)c2cc(C)c(-c3c(C)cc4c(C(C)C)c(O)c(O)c(C(=O)C(=O)NCCCC(=O)OC)c4c3O)c(O)c12`, the GI50 in the test with OVCAR-3 ovarian was 0.32 µM; in the test on HCT-116 colon, 0.156 µM; in the test with BT-549 breast, 1.19 µM; in the test with TK-10 renal, 0.34 µM; in the test on HT29 colon, 0.542 µM; in the test on HCC-2998 colon it was 0.679 µM. For the same compound, the GI50 in the test with LOX IMVI melanoma was 0.537 µM; in the test with RXF 393 renal it was 0.651 µM; in the test on NCI-H460 lung, 0.345 µM; in the test with SF-268 CNS, 0.435 µM. In addition, the TGI with OVCAR-3 ovarian stood at 3.46 µM; in the test on HCT-116 colon it was 2.31 µM; with BT-549 breast, 7.28 µM; with TK-10 renal, 2.73 µM; in the test on HT29 colon it was 3.81 µM; with HCC-2998 colon, 7.98 µM. In addition, the TGI in the test on LOX IMVI melanoma turned out to be 1.48 µM; in the test with RXF 393 renal, 5 µM; in the test on NCI-H460 lung it was 3.74 µM; in the test on SF-268 CNS, 5.13 µM.

Turning to `Cc1cc(C)c(O)c(CNCCCNCc2cc(C)cc(C)c2O)c1`, the GI50 with OVCAR-3 ovarian is 3.82 µM; in the test with HCT-116 colon it was 2.99 µM; in the test on BT-549 breast it was 10.9 µM; in the test with TK-10 renal, 6.16 µM; in the test on HT29 colon it was 3.02 µM; in the test on HCC-2998 colon it was 1.45 µM. Besides, the GI50 with LOX IMVI melanoma is 1.52 µM; in the test with RXF 393 renal, 1.93 µM; in the test on NCI-H460 lung, 2.13 µM; in the test on SF-268 CNS it was 5.97 µM. The TGI with OVCAR-3 ovarian was 15 µM; with HCT-116 colon, 9.49 µM; in the test on BT-549 breast it was 24.5 µM; in the test with TK-10 renal, 20.6 µM; in the test with HT29 colon, 10.7 µM; with HCC-2998 colon, 2.82 µM. The TGI turned out to be 2.88 µM in the test with LOX IMVI melanoma, 4.24 µM with RXF 393 renal, 4.65 µM with NCI-H460 lung and 21.2 µM in the test on SF-268 CNS.

For the compound `O=C1c2ccccc2-c2c1c1ccc([N+](=O)[O-])cc1c(=O)n2CCCn1ccnc1`, the GI50 with OVCAR-3 ovarian is 0.334 µM; in the test on HCT-116 colon it was 0.0763 µM; with BT-549 breast, 0.0359 µM; with TK-10 renal it was 1.16 µM; in the test with HT29 colon it was under 0.0418 µM; in the test with HCC-2998 colon it was 2 µM. In addition, the GI50 is 0.152 µM with LOX IMVI melanoma, 0.16 µM in the test on RXF 393 renal and under 0.0275 µM in the test on NCI-H460 lung. In addition, the TGI in the test with OVCAR-3 ovarian amounted to 2.12 µM; with HCT-116 colon, 0.652 µM; in the test on BT-549 breast, 0.96 µM; with TK-10 renal it was 9.31 µM; with HT29 colon, 10.9 µM; in the test on HCC-2998 colon it was 5.57 µM. Besides, the TGI turned out to be 0.33 µM with LOX IMVI melanoma, 2.43 µM in the test with RXF 393 renal, 7.98 µM in the test with NCI-H460 lung and 15.1 µM in the test on SF-268 CNS.

On to `Clc1ccc(COC(Cn2ccnc2)c2ccc(Cl)cc2Cl)c(Cl)c1` (stereo not drawn), for which the GI50 in the test on OVCAR-3 ovarian was 5.35 µM; with HCT-116 colon, 2.87 µM; in the test on BT-549 breast, 4.7 µM; in the test on TK-10 renal it was 10.7 µM; in the test on HT29 colon, 3.55 µM and 7.53 µM and 3.17 µM; in the test with HCC-2998 colon, 3.78 µM. Moreover, the GI50 in the test on LOX IMVI melanoma is 3.51 µM; in the test with RXF 393 renal it was 2.78 µM and 12.1 µM and 3.84 µM; with NCI-H460 lung, 4.38 µM; in the test on SF-268 CNS it was 7.87 µM. Moreover, the TGI in the test on OVCAR-3 ovarian is 17.1 µM and 25 µM and 21.5 µM; in the test with HCT-116 colon, 11.3 µM and 18.4 µM and 17.7 µM; in the test on BT-549 breast, 16 µM and 30.4 µM; in the test with TK-10 renal, 22.9 µM and 29.6 µM; with HT29 colon it was 15.4 µM and 21.1 µM and 15.5 µM; in the test with HCC-2998 colon, 14.9 µM and 35.6 µM and 26.3 µM. Further, the TGI with LOX IMVI melanoma was 16.2 µM and 34.3 µM and 24.8 µM; in the test on RXF 393 renal, 10.5 µM and 26 µM and 14.5 µM; with NCI-H460 lung, 19.3 µM and > 100 µM and 35 µM; in the test with SF-268 CNS, 24.9 µM and 26.9 µM and 28.6 µM.

Turning to `O=C1CCC(N2C(=O)c3cccc(NCCOCCOCCNC(=O)c4cc5c(o4)C(=O)c4ccccc4C5=O)c3C2=O)C(=O)N1` (stereo not drawn), the GI50 is 0.295 µM in the test on OVCAR-3 ovarian; 2.32 µM in the test with HCT-116 colon; 1.47 µM in the test with BT-549 breast; 3.81 µM with TK-10 renal; 3.35 µM in the test on HT29 colon; 1.89 µM with HCC-2998 colon. The GI50 in the test with LOX IMVI melanoma is 1.1 µM; in the test on RXF 393 renal it was 1.67 µM; with NCI-H460 lung it was 1.97 µM; in the test with SF-268 CNS, 2.18 µM. For the same compound, the TGI was 1.03 µM in the test on OVCAR-3 ovarian; 6.9 µM with HCT-116 colon; 2.84 µM in the test on BT-549 breast; 9.08 µM in the test on TK-10 renal; over 100 µM in the test on HT29 colon; 3.57 µM with HCC-2998 colon. Further, the TGI in the test with LOX IMVI melanoma turned out to be 2.5 µM; in the test on RXF 393 renal it was 3.21 µM; in the test with NCI-H460 lung it was 3.87 µM; with SF-268 CNS it was 5.72 µM.

As to `CCCc1n(Cc2ccc3ccccc3n2)cc[n+]1Cc1ccc2ccccc2c1`, the GI50 with OVCAR-3 ovarian is 0.452 µM; in the test on HCT-116 colon, 1.06 µM; in the test on BT-549 breast, 0.23 µM; with TK-10 renal it was 1.21 µM; in the test on HT29 colon, 0.409 µM; in the test on HCC-2998 colon, 0.564 µM. The GI50 with LOX IMVI melanoma was 1.07 µM; in the test with RXF 393 renal it was 2.98 µM; with NCI-H460 lung, 0.658 µM; in the test on SF-268 CNS, 1.01 µM. Further, the TGI in the test with OVCAR-3 ovarian amounted to 1.96 µM; with HCT-116 colon, 7.05 µM; with BT-549 breast, 1.43 µM; in the test with TK-10 renal it was 2.81 µM; in the test on HT29 colon, 2.07 µM; in the test with HCC-2998 colon, 2.33 µM. Further, the TGI amounted to 2.95 µM in the test with LOX IMVI melanoma, 14.6 µM with RXF 393 renal, 10.6 µM in the test with NCI-H460 lung and 10.6 µM in the test on SF-268 CNS.

As for `CCN(CC)c1ccc(/C=N/NC(=O)c2ccccc2Nc2ccnc(C(F)(F)F)c2)c(O)c1`, the GI50 with OVCAR-3 ovarian was 0.0845 µM; in the test on HCT-116 colon it was 0.0895 µM; with BT-549 breast it was 0.529 µM; in the test on TK-10 renal, 0.365 µM; in the test with HT29 colon it was 0.362 µM; with HCC-2998 colon it was 0.192 µM. Further, the GI50 in the test on LOX IMVI melanoma was 0.0837 µM; in the test on RXF 393 renal, 0.226 µM; with NCI-H460 lung, 0.0681 µM; with SF-268 CNS, 0.0942 µM. In addition, the TGI in the test with OVCAR-3 ovarian is over 100 µM; in the test with HCT-116 colon it was over 100 µM; with BT-549 breast, over 100 µM; in the test with TK-10 renal, over 67.4 µM; in the test on HT29 colon it was over 100 µM; in the test on HCC-2998 colon, over 100 µM. The figures for the TGI with RXF 393 renal, in the test with NCI-H460 lung and in the test on SF-268 CNS were over 24.6 µM, over 23.4 µM and over 100 µM, respectively.

Consider `CC(=Nc1ccccc1)C1=C(O)C(Cc2ccc(F)cc2)NC1=O` (stereo not drawn), for which the GI50 is 0.323 µM in the test on OVCAR-3 ovarian; 0.49 µM with HCT-116 colon; 0.879 µM in the test with BT-549 breast; 2.1 µM with TK-10 renal; 0.339 µM with HT29 colon; 1.73 µM in the test with HCC-2998 colon. Further, the GI50 in the test with LOX IMVI melanoma was 0.619 µM; in the test on RXF 393 renal, 0.339 µM; in the test on NCI-H460 lung it was 0.44 µM; in the test with SF-268 CNS it was 4.45 µM. The TGI was 1.2 µM in the test with OVCAR-3 ovarian; over 100 µM in the test with HCT-116 colon; over 100 µM in the test with BT-549 breast; over 100 µM in the test on TK-10 renal; over 100 µM in the test with HT29 colon; 40.1 µM with HCC-2998 colon. The TGI in the test with LOX IMVI melanoma was over 100 µM; with RXF 393 renal, 1.74 µM; in the test on NCI-H460 lung, over 100 µM; in the test on SF-268 CNS, over 100 µM.
